# Data from patent publication US4748254A, “Mixed carboxylato platinum (II) complexes” (priority 1984, dated 1988).
# Legend:
# [1] = tested on: hepatoma 22a; assay: Increase of lifespan of mice with grafted hepatoma 22a; format: in vivo
# Description: (§1) As the criteria for the antitumor activity for leukosises and ascytic forms of tumors the increase of the lifespan of treated animals (ILS, %)
# (§2) T--average lifespan of treated animals;
# (§3) C--average lifespan of control animals;
# (§4) The experiments were carried out on line mice and their hybrides of the first generation. […]
# [2] = tested on: plasmacytoma MOPC-406; assay: Increase of lifespan of mice with plasmacytoma MOPC-406; format: in vivo; settings: for curing of animals with plasmocytoma MOPC-406: in words
# Description: as §1, §2, §3, §4
# [3] = tested on: hemocytoblastosis La; assay: Increase of lifespan of mice with hemocytoblastosis La; format: in vivo
# Description: as §1, §2, §3, §4
# [4] = tested on: lymphoid leukosis L-1210; assay: Increase of lifespan of mice with lymphoid leukosis L-1210; format: in vivo
# Description: as §1, §2, §3
# The experiments were carried out on line mice and their hybrides of the first generation. […] The compounds were administered to animals intraperitoneally in a 5% solution of glucose once or daily over 5 days within the time limits adopted in experimental studies of corresponding tumors.
# [5] = tested on: mammal adenocarcinoma Ca 755; assay: Tumor growth inhibition of mammal adenocarcinoma Ca 755; format: in vivo, mice
# Description: and for a solid tumor--tumor growth inhibition (TGI, %)
# O--volume of tumors in the group of treated animals;
# K--volume of tumors in the control group were employed.
# as §4
# [6] = Storage stability and hygroscopicity; format: physicochemical; settings: in words
# [7] = tested on: graft strains of tumors and leukoses of mice; assay: Antitumor activity, overall statement; format: in vivo; settings: in words
# Description: The antitumor activity of the compounds according to the present invention has been studied on a number of strains of grafted solid tumors and leukosises of mice: plasmacytoma MOPC-406, lymphoid leukosis L-1210, hemocytoblastosis La, hepatoma 22a, mammal adenocarcinoma Ca 755.
# The experiments were carried out on line mice and their hybrides of the first generation. […] The compounds were administered to animals intraperitoneally in a 5% solution of glucose once or daily over 5 days within the time limits adopted in experimental studies of corresponding tumors. […]
# [8] = cited from earlier work
# [9] = cited from earlier work; remark: listed apart in the source
# [10] = tested on: plasmacytoma of mice ADJ/PC6A; settings: cited from earlier work
# [11] = tested on: tumors; settings: in words; cited from earlier work
# [12] = tested on: lymphoid leukosis L-1210; assay: Increase of lifespan of mice with lymphoid leukosis L-1210; format: in vivo; settings: 3 mg/kg i.p. in 0.9% NaCl, days of treatment 1-5
# [13] = 15-25 mg/kg i.p., days of treatment 2-6
# [14] = 20-25 mg/kg i.p., days of treatment 2-6
# [15] = 20 mg/kg i.p., days of treatment 7-11
# [16] = 20-40 mg/kg i.p., days of treatment 2-6
# [17] = 5 mg/kg i.p. in 0.9% NaCl, day 3
# [18] = 2 mg/kg i.p. in 0.9% NaCl, days of treatment 2-5
# [19] = 30 mg/kg i.p., days of treatment 2-6
molecule,measurement,setting,value
"N.NC1CC1.O=C([O-])CC(=O)[O-].[Pt+2] [Example 1, malonatoammine(cyclopropylamine)platinum(II)]","Increase of lifespan, %, Hepatoma 22a",[1]; [13],85%
same,"number of cured animals / animals employed, Hepatoma 22a",[1]; [13],0/6
same,"Increase of lifespan, %, MOPC-406","[2]; 60 mg/kg i.p., day 7",150%
same,"number of cured animals / animals employed, MOPC-406","[2]; 60 mg/kg i.p., day 7",1/6
same,"Increase of lifespan, %, MOPC-406",[2]; [13],268%
same,"number of cured animals / animals employed, MOPC-406",[2]; [13],2/6
same,"Increase of lifespan, %, MOPC-406","[2]; 60-70 mg/kg i.p., day 2",177%
same,"number of cured animals / animals employed, MOPC-406","[2]; 60-70 mg/kg i.p., day 2",1/6
same,curing of animals with plasmocytoma MOPC-406,[2],ensure curing of a certain number of animals (up to 100%)
same,"Increase of lifespan, %, La",[3]; [13],29%
same,"Increase of lifespan, %, L-1210",[4]; [13],39%
same,"Increase of lifespan, %, L-1210","[4]; 60-70 mg/kg i.p., day 2",48%
same,"Tumor growth inhibition, %, Ca-755",[5]; [13],89%
RS-malatoammine(cyclopentylamine)platinum(II) [Example 5],"Increase of lifespan, %, Hepatoma 22a",[1]; [14],322%
same,"number of cured animals / animals employed, Hepatoma 22a",[1]; [14],2/6
same,curing of animals with hepatoma 22a,[1]; in words,cure a portion of animals
same,"Increase of lifespan, %, MOPC-406",[2]; [14],350%
same,"number of cured animals / animals employed, MOPC-406",[2]; [14],4/6
same,curing of animals with plasmocytoma MOPC-406,[2],ensure curing of a certain number of animals (up to 100%)
same,"Increase of lifespan, %, L-1210",[4]; [14],156%
same,"Tumor growth inhibition, %, Ca-755",[5]; [14],95%
S(-)malatoammine(cyclopentylamine)platinum(II) [Example 4],hygroscopicity,[6],hydroscopic
same,"Increase of lifespan, %, Hepatoma 22a",[1]; [13],225%
same,"number of cured animals / animals employed, Hepatoma 22a",[1]; [13],4/6
same,curing of animals with hepatoma 22a,[1]; in words,cure a portion of animals
same,curing of animals with hepatoma 22a,[1]; optimal doses,up to 66%
same,"Increase of lifespan, %, MOPC-406",[2]; [15],356%
same,"number of cured animals / animals employed, MOPC-406",[2]; [15],3/6
same,"Increase of lifespan, %, MOPC-406",[2]; [13],327%
same,"number of cured animals / animals employed, MOPC-406",[2]; [13],6/6
same,"Increase of lifespan, %, MOPC-406","[2]; 60-80 mg/kg i.p., day 2",310%
same,"number of cured animals / animals employed, MOPC-406","[2]; 60-80 mg/kg i.p., day 2",5/6
same,curing of animals with plasmocytoma MOPC-406,[2],ensure curing of a certain number of animals (up to 100%)
same,curing of animals with plasmacytoma MOPC-406,[2]; optimal doses,up to 100%
same,"Increase of lifespan, %, La",[3]; [13],113%
same,lifespan of animals with hemocytoblastosis La,[3]; in words,considerably extends the lifespan
same,extension of life span of animals with hemocytoblastosis La,[3]; optimal doses,113%
same,"Increase of lifespan, %, L-1210",[4]; [13],195%
same,"Increase of lifespan, %, L-1210","[4]; 60-80 mg/kg i.p., day 2",101%
same,extension of life span of animals with leukemia L-1210,[4]; optimal doses,195%
same,"Tumor growth inhibition, %, Ca-755",[5]; [13],96%
same,antitumor activity,[7],highest antitumor activity among the compounds according to the present invention
[Cl][Pt-2]([Cl])([NH2+]C1CCCC1)[NH2+]C1CCCC1 [cis-[PtCl2 (cyclo-C5 H9 NH2)2]],therapeutic response or side effect,[8]; fine suspensions in sesame oil or aqueous solloids stabilized by polyvinylpyrrolidone,no therapeutic response or a side effect
same,local irritation,[8]; in vivo,local irritation upon administration of an oily suspension
same,retention at the spot of the injection,[8]; in vivo,substantially remains at the spot of the injection
same,solubility in water,"[9]; prior art compound, in words",substantially insoluble in water
same,ID90 (dose inhibiting growth of tumors by 90%),"[10]; plasmacytoma ADJ/PC6A, mice",2.4 mg/kg
same,therapeutical index TI=LD50/ID90,"[10]; plasmacytoma ADJ/PC6A, mice",200
"[NH2][Pt]1([NH]C2CCCC2)[O]C(=O)CC(=O)[O]1 [Example 6, malonatoammine(cyclopentylamine)platinum(II)]",hygroscopicity,[6],very hygroscopic
same,"Increase of lifespan, %, Hepatoma 22a",[1]; [13],140%
same,"number of cured animals / animals employed, Hepatoma 22a",[1]; [13],2/6
same,curing of animals with hepatoma 22a,[1]; in words,cure a portion of animals
same,"Increase of lifespan, %, MOPC-406","[2]; 50 mg/kg i.p., day 7",329%
same,"number of cured animals / animals employed, MOPC-406","[2]; 50 mg/kg i.p., day 7",3/6
same,"Increase of lifespan, %, MOPC-406",[2]; [13],286%
same,"number of cured animals / animals employed, MOPC-406",[2]; [13],3/6
same,"Increase of lifespan, %, MOPC-406","[2]; 40-60 mg/kg i.p., day 2",300%
same,"number of cured animals / animals employed, MOPC-406","[2]; 40-60 mg/kg i.p., day 2",5/6
same,curing of animals with plasmocytoma MOPC-406,[2],ensure curing of a certain number of animals (up to 100%)
same,"Increase of lifespan, %, La",[3]; [13],21%
same,"Increase of lifespan, %, L-1210",[4]; [13],36%
same,"Increase of lifespan, %, L-1210","[4]; 40-60 mg/kg i.p., day 2",45%
same,"Tumor growth inhibition, %, Ca-755",[5]; [13],76%
N.NC1CCCC1.[Cl][Pt][Cl] [cis-[PtCl2 NH3 (cyclo-C5 H9 NH2)]],solubility in 0.9% NaCl,[9]; 0.9% NaCl,about 1 mg/ml
same,toxicity compared with DDP,"[10]; in words, versus DDP",slightly more toxic than DDP
same,LD50,"[10]; mice, plasmacytoma ADJ/PC6A tests",11.0 mg/kg
same,ID90 (dose inhibiting growth of tumors by 90%),"[10]; plasmacytoma ADJ/PC6A, mice",0.5 mg/kg
same,"90% tumor growth inhibiting dose, times less than that of DDP","[10]; plasmacytoma ADJ/PC6A, versus DDP",3 times
same,"90% tumor growth inhibiting dose, times less than that of cis-[PtCl2 (cyclo-C5 H9 NH2)2 ]","[10]; plasmacytoma ADJ/PC6A, versus cis-[PtCl2 (cyclo-C5 H9 NH2)2 ]",~5 times
same,advantage over parent compounds with identical ligands,[11],absence of advantages of this mixed complex as compared to the parent compounds with identical ligands
"N.NCC1CCCO1.O.O=C1C[C@H](O)C(=O)[O][Pt][O]1 [Example 21, S(-)-malatoammine(tetrahydrofurfurylamine)platinum(II)]","Increase of lifespan, %, Hepatoma 22a",[1]; [16],340%
same,"number of cured animals / animals employed, Hepatoma 22a",[1]; [16],2/6
same,curing of animals with hepatoma 22a,[1]; in words,cure a portion of animals
same,"Increase of lifespan, %, MOPC-406",[2]; [16],280%
same,"number of cured animals / animals employed, MOPC-406",[2]; [16],3/6
same,curing of animals with plasmocytoma MOPC-406,[2],ensure curing of a certain number of animals (up to 100%)
same,"Increase of lifespan, %, L-1210",[4]; [16],120%
same,"Tumor growth inhibition, %, Ca-755",[5]; [16],95%
NC1CCCCC1.NC1CCCCC1.[Cl][Pt][Cl] [complex with cyclohexylamine],therapeutical index TI=LD50/ID90,"[10]; plasmacytoma ADJ/PC6A, mice",above 267
"N.NC1CCC1.O=C1[O][Pt][O]C(=O)C1O [Example 3, (hydroxymalonato)ammine(cyclobutylamine)platinum(II)]","Increase of lifespan, %, L-1210","[4]; 25 mg/kg i.p., days of treatment 2-6",100%
same,"Increase of lifespan, %, L-1210","[4]; 60 mg/kg i.p., day 2",71%
same,"Tumor growth inhibition, %, Ca-755","[5]; 20 mg/kg i.p., days of treatment 2-6",70%
"N.N.[Cl][Pt][Cl] [DDP, cis-dichlorodiammineplatinum(II), reference compound]","Increase of lifespan, %, L-1210",[12],116%
same,"Increase of lifespan, %, Hepatoma 22a",[1]; [17],120%
same,"number of cured animals / animals employed, Hepatoma 22a",[1]; [17],0/6
same,curing of animals with hepatoma 22a,[1]; in words,no curing of animals
same,"Increase of lifespan, %, MOPC-406",[2]; [18],140%
same,"number of cured animals / animals employed, MOPC-406",[2]; [18],0/6
same,curing of animals with plasmocytoma MOPC-406,[2],no curing of animals
same,ID90 (dose inhibiting growth of tumors by 90%),"[10]; plasmacytoma ADJ/PC6A, mice",1.6 mg/kg
same,"Increase of lifespan, %, La","[3]; 8 mg/kg i.p. in 0.9% NaCl, day 1",200%
same,"Tumor growth inhibition, %, Ca-755","[5]; 8 mg/kg i.p. in 0.9% NaCl, day 2",95%
same,antitumor activity,[11],high antitumor activity
same,spectrum of action on diverse tumors,[11],remarkably wide spectrum of action on diverse tumors
"[NH2][Pt]1([NH]C2CCCCC2)[O]C(=O)CCC(=O)[O]1 [Example 15, succinatoammine(cyclohexylamine)platinum(II)]","Increase of lifespan, %, L-1210",[4]; [19],108%
same,"Increase of lifespan, %, L-1210","[4]; 150 mg/kg i.p., day 2",120%
same,"Tumor growth inhibition, %, Ca-755",[5]; [19],72%
